System: Huh7 psiCHECK-miR122 Renilla luciferase reporter, 48 h
Assay: miR-122 inhibitors in Huh7 reporter cells, dose response, cell-based, Huh7 psiCHECK-miR122, Renilla luciferase, cherry-pick (AID 652053)

Question: Which AC40 does the source give for `COc1ccc(NS(=O)(=O)c2cc(NC(=O)c3ccc(=O)[nH]n3)ccc2C)cc1` here?
Answer: 5.01 µM

Question: Which AC40 does the source give for `Cc1ccc(S(=O)(=O)Nc2cc(C)c(O)c(S(=O)(=O)c3ccc(C)cc3)c2)cc1` here?
Answer: 11.2 µM

Question: `O=C(NCc1ccncc1)c1cccc(S(=O)(=O)Nc2ccc(F)cc2)c1` was tested. Which AC40 did it give?
Answer: 3.23 µM

Question: For `COc1ccc(S(=O)(=O)NC2CC3CCC2C3)cc1Cl` (stereo not drawn), which AC40 is on record?
Answer: 4.66 µM

Question: Which AC40 does the source give for `O=C(Nc1ccccc1)c1ccc(NC2CCCCC2)c(S(=O)(=O)N2CCOCC2)c1` here?
Answer: 13.9 µM

Question: How did the AC40 turn out when `COc1ccc(C)cc1S(=O)(=O)Nc1ccc(F)cc1` was run?
Answer: 1.04 µM

Question: For `COc1ccc(S(=O)(=O)NCc2ccccn2)cc1NC(=O)c1ccccc1C`, which AC40 is on record?
Answer: 10.2 µM

Question: How did the AC40 turn out when `COc1ccc(NS(=O)(=O)c2ccc(NC(=S)NC(=O)C(C)C)cc2)cc1` was run?
Answer: 1.34 µM

Question: For `CCOc1cc(C)c(S(=O)(=O)NC2CCCCC2)cc1C`, which AC40 is on record?
Answer: 1.49 µM

Question: `C[C@@H]1CN([C@@H](C)CO)C(=O)c2cccc(NC(=O)C3CC3)c2O[C@@H]1CN(C)Cc1ccc(C(=O)Nc2ccccc2N)cc1` was tested. Which AC40 did it give?
Answer: 3.72 µM

Question: How did the AC40 turn out when `CC(C)C(=O)NC(=S)Nc1ccc(S(=O)(=O)Nc2ccccc2)cc1` was run?
Answer: 0.461 µM

Question: `COc1ccccc1NS(=O)(=O)c1cc(NC(=O)CCC2CCCC2)ccc1N1CCOCC1` was tested. Which AC40 did it give?
Answer: 1.45 µM

Question: How did the AC40 turn out when `Cc1ccc(S(=O)(=O)N(C)C[C@H]2Oc3ccc(NC(=O)CCC(F)(F)F)cc3C(=O)N([C@@H](C)CO)C[C@H]2C)cc1` was run?
Answer: 12.1 µM

Question: With `CCOC(=O)c1cc(S(=O)(=O)NC2CCCCC2)cn1C` as the compound, how does the AC40 read?
Answer: 5.77 µM

Question: For `COc1ccc(OC)c(S(=O)(=O)Nc2cc3c4c(c2)CCN4C(=O)CC3)c1`, which AC40 is on record?
Answer: 2.85 µM

Question: Which AC40 does the source give for `Cc1ccc(NS(=O)(=O)c2cc(C(=O)N3CCN(C)CC3)ccc2C)cc1C` here?
Answer: 25.1 µM

Question: With `CC(C)n1nc(C(=O)Nc2cccc(S(=O)(=O)NCc3ccco3)c2)c2ccccc2c1=O` as the compound, how does the AC40 read?
Answer: 2.61 µM

Question: For `CCOc1ccc(NS(=O)(=O)c2ccc(NC(=S)NC(=O)C(C)C)cc2)cc1`, which AC40 is on record?
Answer: 5.48 µM

Question: Which AC40 does the source give for `COc1ccc(OC)c(NS(=O)(=O)c2ccc(N3CCCC3=O)cc2)c1` here?
Answer: 14.8 µM

Question: How did the AC40 turn out when `COc1ccccc1CNC(=O)C[C@H]1CC[C@H]2[C@@H](COc3ccc(NS(=O)(=O)c4ccc(C)cc4)cc3C(=O)N2C)O1` was run?
Answer: 21.5 µM

Question: Which AC40 does the source give for `CN1c2ccc(-c3ccccc3)cc2[C@H]2[C@H](CCN2S(=O)(=O)c2ccccc2F)[C@H]1CO` here?
Answer: 3.63 µM

Question: How did the AC40 turn out when `S=C(NCCc1ccccc1)Nc1ccc(Cl)cc1Cl` was run?
Answer: 5.71 µM

Question: `COc1ccc(C)cc1NS(=O)(=O)c1ccc2c(c1)CCN2C(C)=O` was tested. Which AC40 did it give?
Answer: 8.33 µM

Question: For `CCCNC(=O)NC[C@@H]1[C@@H](c2ccc(C3=CCCCC3)cc2)[C@H](CO)N1C(C)=O`, which AC40 is on record?
Answer: 2.47 µM

Question: With `Cc1ccc(C(C)C)cc1S(=O)(=O)Nc1cccnc1` as the compound, how does the AC40 read?
Answer: 2.62 µM

Question: For `COc1cccc(NS(=O)(=O)c2cc(C)ccc2OC)c1`, which AC40 is on record?
Answer: 1.53 µM

Question: `COc1ccc(F)cc1S(=O)(=O)Nc1ccc2c(c1)OCO2` was tested. Which AC40 did it give?
Answer: 5.47 µM

Question: `COc1ccccc1NS(=O)(=O)c1cc(NC(=O)CCC(=O)c2cccs2)ccc1Cl` was tested. Which AC40 did it give?
Answer: 21.7 µM

Question: `COc1cc(S(=O)(=O)NC2CCCC2)c(OC)cc1Cl` was tested. Which AC40 did it give?
Answer: 2.6 µM

Question: How did the AC40 turn out when `COc1ccc(C(C)(C)C)cc1S(=O)(=O)NCC1CCCO1` (stereo not drawn) was run?
Answer: 0.329 µM

Question: How did the AC40 turn out when `O=S(=O)(Nc1ncnc2c1oc1ccccc12)c1ccc(Cl)s1` was run?
Answer: 18.8 µM

Question: Which AC40 does the source give for `COc1cc(NS(=O)(=O)c2ccc(OC)c(C)c2C)c(OC)cc1Cl` here?
Answer: 3.5 µM

Question: With `CC(=O)Nc1ccc2c(c1)C(=O)N(C)[C@H]1CC[C@@H](CC(=O)NCc3ccc(Cl)cc3)O[C@H]1CO2` as the compound, how does the AC40 read?
Answer: 11 µM

Question: How did the AC40 turn out when `Nc1c(S(=O)(=O)c2cccs2)c2nc3ccccc3nc2n1Cc1ccccc1` was run?
Answer: 1.86 µM

Question: How did the AC40 turn out when `O=C(CCc1ccc(S(=O)(=O)NC2CCCCC2)cc1)N(Cc1ccccc1)Cc1ccccc1` was run?
Answer: 2.07 µM

Question: With `CC(C)(C)c1ccc(S(=O)(=O)Nc2ccc(C(O)(C(F)(F)F)C(F)(F)F)cc2)cc1` as the compound, how does the AC40 read?
Answer: 5.39 µM

Question: Which AC40 does the source give for `Cc1ccc(-c2nn(Cc3ccccc3)cc2C(=O)N2CCN(c3ccccn3)CC2)cc1` here?
Answer: 2.44 µM

Question: For `COc1cc(S(=O)(=O)NC2CCCCC2)c(C)cc1C`, which AC40 is on record?
Answer: 0.686 µM

Question: For `O=C1c2ccccc2C2=Nc3ccccc3SC(c3cccc(F)c3)C12` (stereo not drawn), which AC40 is on record?
Answer: 7.63 µM

Question: For `Cc1ccc(C(=O)Nc2ccc(C)c(S(=O)(=O)Nc3ccccc3Cl)c2)s1`, which AC40 is on record?
Answer: 3.03 µM

Question: How did the AC40 turn out when `C[C@@H]1CN([C@H](C)CO)C(=O)c2cccc(NC(=O)Nc3ccc(F)cc3)c2O[C@H]1CN(C)Cc1ccc(C(F)(F)F)cc1` was run?
Answer: 1.51 µM

Question: For `CCOc1cc(C)c(S(=O)(=O)NCCCn2ccnc2)cc1C`, which AC40 is on record?
Answer: 5.88 µM

Question: For `O=S(=O)(Nc1ccc(N2CCOCC2)cc1)c1cc(Cl)ccc1Cl`, which AC40 is on record?
Answer: 26.6 µM

Question: With `COc1ccccc1C(=O)Nc1ccc2c(c1)C(=O)N(C)[C@H]1CC[C@@H](CC(=O)NCc3ccc(Cl)c(Cl)c3)O[C@@H]1CO2` as the compound, how does the AC40 read?
Answer: 2.85 µM

Question: For `COc1ccc(NC(C)=O)cc1S(=O)(=O)Nc1ccc(S(=O)(=O)N2CCCCC2)cc1`, which AC40 is on record?
Answer: 2.62 µM

Question: With `O=S(=O)(NCCC1=CCCCC1)c1ccccc1Cl` as the compound, how does the AC40 read?
Answer: 3.9 µM

Question: Which AC40 does the source give for `C[C@H](CO)N1C[C@H](C)[C@@H](CN(C)Cc2ccc3c(c2)OCO3)Oc2c(NC(=O)Nc3ccccc3)cccc2C1=O` here?
Answer: 8.95 µM

Question: `COc1ccc(C2CCCCCN2Cc2nc3ccccc3c(=O)n2CC(N)=O)cc1` (stereo not drawn) was tested. Which AC40 did it give?
Answer: 9.73 µM

Question: For `C[C@H](CO)N1C[C@H](C)[C@@H](CN(C)CC2CCCCC2)Oc2c(NC(=O)c3ccncc3)cccc2C1=O`, which AC40 is on record?
Answer: 1.97 µM

Question: `S=C(NCc1cccs1)Nc1cccc(Cl)c1` was tested. Which AC40 did it give?
Answer: 3.93 µM

Question: With `Cc1ccc(C(=O)C2Oc3ccccc3C3CC(c4ccc(C)cc4)=NN23)cc1` (stereo not drawn) as the compound, how does the AC40 read?
Answer: 1.17 µM

Question: With `CC1CCN(C(=O)CN(c2ccc3c(c2)OCCO3)S(=O)(=O)c2ccccc2)CC1` as the compound, how does the AC40 read?
Answer: 2.51 µM

Question: `CCc1nnc(NC(=O)c2ccc(NS(=O)(=O)c3ccccc3)cc2)s1` was tested. Which AC40 did it give?
Answer: 2.68 µM

Question: `CC(=O)c1cccc(NS(=O)(=O)c2cc(-c3cnc(C4CC4)o3)ccc2C)c1` was tested. Which AC40 did it give?
Answer: 6.63 µM

Question: Which AC40 does the source give for `O=C(NCc1ccccn1)c1cccc(NS(=O)(=O)c2cccc(F)c2)c1` here?
Answer: 5.83 µM

Question: Which AC40 does the source give for `C[C@H](CO)N1C[C@H](C)[C@@H](CN(C)Cc2ccc(C(F)(F)F)cc2)Oc2ccc(N(C)C)cc2C1=O` here?
Answer: 0.891 µM

Question: How did the AC40 turn out when `Cc1ccc(NS(=O)(=O)c2cc(C(=O)NCc3ccccn3)ccc2Cl)cc1C` was run?
Answer: 2.91 µM

Question: `O=C(COc1ccc(S(=O)(=O)NC2CCCCC2)cc1)Nc1ccc2c(c1)OCCO2` was tested. Which AC40 did it give?
Answer: 7.82 µM

Question: How did the AC40 turn out when `CC(=O)N1CCCc2cc(S(=O)(=O)Nc3ccc4c(c3)OCO4)ccc21` was run?
Answer: 6.16 µM

Question: `CC(C)NC(=O)Nc1ccc2c(c1)CC(=O)N([C@H](C)CO)C[C@H](C)[C@H](CN(C)Cc1ccc(C(=O)Nc3ccccc3N)cc1)O2` was tested. Which AC40 did it give?
Answer: 14.2 µM

Question: Which AC40 does the source give for `O=C(NNS(=O)(=O)c1ccc(Cl)cc1)c1cccs1` here?
Answer: 16.6 µM

Question: For `O=S(=O)(NC1CC2CCC1C2)c1ccc2c(c1)OCCO2` (stereo not drawn), which AC40 is on record?
Answer: 3.87 µM

Question: For `O=C(c1ccccc1)C(O)(Cc1ccccc1)c1ccccc1` (stereo not drawn), which AC40 is on record?
Answer: 8.14 µM

Question: For `O=C(Nc1nc2ccc(S(=O)(=O)N3CCCC3)cc2s1)C1CCCCC1`, which AC40 is on record?
Answer: 14.8 µM

Question: For `Cc1cc(C)cc(NS(=O)(=O)c2ccc3c(c2)C(C)(C)C(=O)N3C)c1`, which AC40 is on record?
Answer: 1.21 µM

Question: Which AC40 does the source give for `C[C@H](CO)N1C[C@H](C)[C@@H](CN(C)Cc2ccc(Oc3ccccc3)cc2)Oc2c(NC(=O)c3ccncc3)cccc2C1=O` here?
Answer: 2.42 µM

Question: `Cc1ccc(NC(=O)Cc2cn(C)c3ccccc23)cc1F` was tested. Which AC40 did it give?
Answer: 7.09 µM

Question: How did the AC40 turn out when `CN(C)S(=O)(=O)c1ccc(NS(=O)(=O)/C=C/c2ccccc2)cc1` was run?
Answer: 2.27 µM

Question: How did the AC40 turn out when `COc1ccc(C)cc1S(=O)(=O)NC1CCCC1` was run?
Answer: 6.24 µM

Question: For `COc1ccc(OC)c(C2C3=C(COC3=O)Nc3cc4c(cc32)OCO4)c1` (stereo not drawn), which AC40 is on record?
Answer: 17.7 µM

Question: For `CCc1ccc(NS(=O)(=O)c2ccc(OC)c3ncccc23)cc1`, which AC40 is on record?
Answer: 0.362 µM

Question: With `COc1ccc(CN(C(=O)c2ccc(-c3ccccc3)[nH]2)C(C(=O)NCC2CCCO2)c2ccc(C)o2)cc1` (stereo not drawn) as the compound, how does the AC40 read?
Answer: 5.58 µM

Question: `Cc1ccccc1NS(=O)(=O)c1cc(C(=O)N2CCc3ccccc3C2)ccc1C` was tested. Which AC40 did it give?
Answer: 20.4 µM
